Data published in patent US6495348B1, “Mitomycin biosynthetic gene cluster” (priority 1993, dated 2002).

Experiments:
S. lavendulae wild-type = experiment: MC resistance of S. lavendulae, plate count; assay type: cell-based, Streptomyces lavendulae
Description: To establish a physiological role for MCT in S. lavendulae, the corresponding gene (mct) was inactivated by insertion of the aphII gene from transposon Tn5 to give pDHS7704.

PJS103 = tested on: PJS103
Procedure: Construction of mct-mrd co-expression plasmid. […] The fragment contained the mrd gene under the control of the T7 promoter, including transcriptional terminator sequences (rrnB T1) upstream and downstream of mrd.
The cultures were grown overnight at 37° C. and colony-forming units (CFUS) were determined.
Co-expression of mct and mrd in E. coli. To address the notion that MRD and MCT proteins participate as components of a binding protein-dependent drug export system, the mct and mrd genes were co-expressed in E. coli.

SMILES | MC resistance level (S. lavendulae wild-type) [µg/mL] | resistance to mitomycin B (PJS103)
CO[C@@]12[C@H](COC(N)=O)C3=C(C(=O)C(C)=C(N)C3=O)N1C[C@@H]1N[C@@H]12 [MC, mitomycin C] | > 150 | –
COC1=C(C)C(=O)C2=C(C1=O)[C@H](COC(N)=O)[C@@]1(O)[C@@H]3[C@H](CN21)N3C (some centres unmarked) [Mitomycin B, mitomycin B] | – | high-level resistance
